Assay results as given in paper PMC5052702 (Nature Communications, 2016).
Several values for one entry are separate records, joined by “and”; a condition that tells them apart may be missing. Equal entries are not always repeated.

How the values were obtained:
[1] = molecular target: T1, Coxsackie virus 3C protease (Coxsackievirus B3, UniProt P03313); assay: ESI-MS of protease after incubation with inhibitor (covalent modification); format: binding; details: deconvoluted ESI-MS, main peak
T1 construct: 3C protease of Coxsackie virus B3 consisting of 183 amino-acid residues; made in house; host or cells: E. coli BL21(DE3), plasmid pET-23a(+)
Method: This inactivation rate corresponded to an apparent half-maximal inhibitory concentration (IC50) value of >>1 mM after 10 min (Fig. 2b, Table 1). The covalent mode of action was confirmed by electrospray ionization high-resolution ion mobility spectrometry-mass spectrometry (ESI-MS) measurements. Incubation of the protease with warhead 1 shifted the main deconvoluted mass peak of the protein from 21,471.5 to 21,588.5 Da and the observed protein mass difference of 117 Da corresponded well with the molecular weight of bis-electrophile 1 after hydrolysis of the ethyl ester.
High-resolution mass spectra were recorded on a Synapt G2-S HDMS by Waters Co. (Milford, […]) equipped with an Acquity UPLC and a Phenomenex Jupiter C-18 column (3 × 250 mm, 5 μm, 300 Å). The ionization and transfer parameters of the MS system have been optimized for a standard sample (insulin) and were applied without modification. Deconvolution of measurement results was performed by the MaxEnt1 method of the MassLynx software by Waters Co. The most important source parameters are: capillary voltage: 3.3 kV, sampling cone: 40 V, source offset: 60 V, source temperature: 100 °C, desolvation temperature: 250 °C, desolvation gas flow: 600 l h^−1. […]

CVB3 3C protease = molecular target: T2, CVB3 3C protease (Coxsackievirus B3, UniProt P03313); assay: FRET-based enzyme activity assay (warhead activation / inhibitor kinetics); format: biochemical, Coxsackie virus B3
T2 construct: 3C protease of Coxsackie virus B3 consisting of 183 amino-acid residues; made in house; host or cells: E. coli BL21(DE3), plasmid pET-23a(+)
Method: The activity of the protease was measured by hydrolysis of the FRET-substrate N-Dabcyl-KTLEALFQ↓GPPVYE(Edans)-NH2. The peptide was purchased from Biosyntan (Berlin, Germany). Samples were irradiated with light with a wavelength of 355 nm and the emitted light at 538 nm was measured in relative fluorescence units (RFUs). An amount of 100 pmol of cleaved substrate equals 5,000 RFU.
Assay samples contained 10 μl of a 100 mM HEPES-NaOH buffer solution pH 7.5/1 mM EDTA, 10 μl enzyme solution (2 μM CVB3 3C^Pro), 10 μl of 10 μM substrate solution (both dissolved in the above buffer) and 1 μl Inhibitor and/or fragment dissolved in DMSO. For assay results of a dilution series of a mixture of 1 and 2 and comparison of reaction products in dependence of the assay solvent, see Supplementary Figs 1 and 2.
The screening procedure consisted of the following steps: 10 μl 100 mM HEPES-NaOH buffer solution pH 7.5/1 mM EDTA was placed in a cavity of the 384-well plate (polystyrene, Corning 3544). Then 10 μl of enzyme solution (40 μM CVB3 3C protease in 100 mM HEPES-NaOH buffer solution, pH 7.5/1 mM EDTA) was added and the plate was shaken for 2 min at 1,400 r.p.m. Afterwards, 0.5 μl of a DMSO solution of the electrophilic probe and 0.5 μl of a DMSO solution of the nucleophile was added, followed by 10 μl of substrate solution (10 μM in 100 mM HEPES-NaOH buffer solution, pH 7.5/1 mM EDTA). The plate was shaken again for 2 min at 1,400 r.p.m. and the generated fluorescence signal was measured with a Safire II Fluorimeter from Tecan. The electrophilic probe 1 was used at a concentration of 400 μM for the screening, which lowered the protease activity by 10–20%. Eight-hundred fifty primary amines were tested at a concentration of 320 μM and fragment 2 amplified the inhibitory activity of 1 most potently. Positive control samples contained only DMSO instead of the probe or the nucleophile. Negative control samples contained no active enzyme. An interfering fluorescent effect has not been observed.
When determining the inhibitory parameters of an inhibitor, the assay set-up was as mentioned but 1 μl DMSO solution of inhibitor was used instead of probe or nucleophile. Different concentrations of inhibitor were tested at least as duplicates and the pseudo-first-order association kinetics (kobs) were determined using GraphPad Prism. The slope of a plot of the different kobs values against the inhibitor concentration yielded kinact/KI.

T2 sequence (P03313 1541-1723): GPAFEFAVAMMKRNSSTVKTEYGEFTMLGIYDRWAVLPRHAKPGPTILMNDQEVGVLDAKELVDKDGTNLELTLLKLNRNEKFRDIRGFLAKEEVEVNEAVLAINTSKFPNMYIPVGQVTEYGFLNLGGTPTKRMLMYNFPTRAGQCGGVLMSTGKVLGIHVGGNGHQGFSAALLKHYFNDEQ
T1 sequence (P03313 1541-1723): as above

Compound: CCOC(=O)[C@H]1O[C@@H]1C=O [Compound 1, ethyl (2S,3S)-epoxy-4-oxo-butanoate]
- observed protein mass difference after incubation [1]: 117 Da
- inhibition of the protease, in words (CVB3 3C protease): virtually inactive
- IC50 (CVB3 3C protease; after 10 min, read-out: apparent half-maximal inhibitory concentration (IC50)): > 1000 µM
- lowering of protease activity (CVB3 3C protease; probe at 400 μM, screening): 10–20%
- kinact/KI (CVB3 3C protease; relative inactivation rate, slope of kobs against inhibitor concentration): 2.36 M⁻¹ s⁻¹ and 2.4 ± 0.1 M⁻¹ s⁻¹
